Results as given in publication PMC7177849, “Gut Microbial Catabolites of Tryptophan Are Ligands and Agonists of the Aryl Hydrocarbon Receptor: A Detailed Characterization” (International Journal of Molecular Sciences, 2020).

Assays:
AhR [1] = system: AhR; design: method as in PMID 23973224; conditions: mouse H1L1.1c2 reporter cells; cited from earlier work
AhR [2] = system: AhR; design: method as in PMID 26235394; conditions: 100 µM IND, HepG2 cells, 4 h; cited from earlier work
CYP1A1 promoter = assay: Chromatin immunoprecipitation (ChIP), binding of the AhR to CYP1A1 promoter in LS180 cells; format: cell-based, human; conditions: 90 min
Protocol: Figure 7 MICT elicit the binding of the AhR to CYP1A1 promoter, as determined by the chromatin immunoprecipitation assay (ChIP). LS180 cells were incubated with vehicle, TCDD, and tested compounds, as described in Materials and Methods, and were then subjected to ChIP analysis. Bar graphs show binding of the AhR to CYP1A1 promoter as quantified by RT-PCR. The entire protocol was carried out in three consecutive cell passages. The data are expressed as a fold enrichment to vehicle-treated cells and show the mean ± SD from duplicates (technical replicates). DNA fragments amplified by PCR were resolved on 2% agarose gel (representative record from “exp 2” is shown).
LS180 cells (4 million) were seeded in a 60-mm dish in Dulbecco’s modified Eagle’s medium (D6546; Sigma Aldrich). The following day, the cells were incubated with DMSO (0.1% V/V), TCDD (10 nM), IND (1000 µM), IPY (200 µM), 3MI (200 µM), TA (200 µM), IAC (100 µM), and IAD (200 µM) for 90 min at 37 °C. ChIP assay was performed as we described in detail elsewhere.

O=Cc1c[nH]c2ccccc12 [IA, indole-3-aldehyde]
agonist activity (AhR [1]): vigorous agonist activity

c1ccc2[nH]ccc2c1 [IND, indole]
activation of AhR (AhR [2]): achieved
induction of CYP1A1 mRNA (AhR [2]): achieved

Clc1cc2c(cc1Cl)Oc1cc(Cl)c(Cl)cc1O2 [TCDD, 2,3,7,8-tetrachlorodibenzo-p-dioxin, reference compound]
binding of the AhR to the promoter of the CYP1A1 gene (CYP1A1 promoter): enhanced
